PubChem BioAssay AID1963424 (Molecular Pharmacology Branch, DTP, NCI, 2024)

Tested on: 327498-153-R-J2-PDC complex spheroid growth, % test/control
Experiment: Anticancer human tumor 327498-153-R-J2-PDC patient-derived uterine carcinosarcoma cell line growth inhibition [Asc]
Conditions: for IC50: curve of first compound; for viability, T/C: stronger effect = lower value
Outline: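 Complex spheroids combining tumor cells with HUVEC endothelial cells and human MSCs, at 37 degrees C, 5% CO2; agents tested alone or combined, half-log dilutions from at or near clinical Cmax, or 10 microM if Cmax unknown.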

[1] = second compound 0.03 µM, first compound 0.0316 µM
[2] = second compound 0.03 µM, first compound 0.1 µM
[3] = second compound 0.03 µM, first compound 0.316 µM
[4] = second compound 0.03 µM, first compound 1 µM
[5] = second compound 0.03 µM, first compound 3.16 µM
[6] = second compound 0.03 µM, first compound 10 µM
[7] = second compound 0.0949 µM, first compound 0.0316 µM
[8] = second compound 0.0949 µM, first compound 0.1 µM
[9] = second compound 0.0949 µM, first compound 0.316 µM
[10] = second compound 0.0949 µM, first compound 1 µM
[11] = second compound 0.0949 µM, first compound 3.16 µM
[12] = second compound 0.0949 µM, first compound 10 µM
[13] = second compound 0.3 µM, first compound 0.0316 µM
[14] = second compound 0.3 µM, first compound 0.1 µM
[15] = second compound 0.3 µM, first compound 0.316 µM
[16] = second compound 0.3 µM, first compound 1 µM
[17] = second compound 0.3 µM, first compound 3.16 µM
[18] = second compound 0.3 µM, first compound 10 µM
[19] = second compound 0.949 µM, first compound 0.0316 µM
[20] = second compound 0.949 µM, first compound 0.1 µM
[21] = second compound 0.949 µM, first compound 0.316 µM
[22] = second compound 0.949 µM, first compound 1 µM
[23] = second compound 0.949 µM, first compound 3.16 µM
[24] = second compound 0.949 µM, first compound 10 µM
[25] = second compound 3 µM, first compound 0.0316 µM
[26] = second compound 3 µM, first compound 0.1 µM
[27] = second compound 3 µM, first compound 0.316 µM
[28] = second compound 3 µM, first compound 1 µM
[29] = second compound 3 µM, first compound 3.16 µM
[30] = second compound 3 µM, first compound 10 µM
[31] = second compound 0.03 µM, first compound 0.00316 µM
[32] = second compound 0.03 µM, first compound 0.01 µM
[33] = second compound 0.0949 µM, first compound 0.00316 µM
[34] = second compound 0.0949 µM, first compound 0.01 µM
[35] = second compound 0.3 µM, first compound 0.00316 µM
[36] = second compound 0.3 µM, first compound 0.01 µM
[37] = second compound 0.949 µM, first compound 0.00316 µM
[38] = second compound 0.949 µM, first compound 0.01 µM
[39] = second compound 3 µM, first compound 0.00316 µM
[40] = second compound 3 µM, first compound 0.01 µM
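Note: spheroids exposed to compound for 7 days after 3 days of growth.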
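Throughout, for viability, T/C: 100% = DMSO vehicle control wells.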

| IC50 (second compound 0.03 µM) | IC50 (second compound 0.0949 µM) | IC50 (second compound 0.3 µM) | IC50 (second compound 0.949 µM) | IC50 (second compound 3 µM) | Compound | viability, T/C [1] | viability, T/C [2] | viability, T/C [3] | viability, T/C [4] | viability, T/C [7] | viability, T/C [8] | viability, T/C [9] | viability, T/C [10] | viability, T/C [13] | viability, T/C [14] | viability, T/C [15] | viability, T/C [16] | viability, T/C [19] | viability, T/C [20] | viability, T/C [21] | other results |
| --- | --- | --- | --- | --- | --- | --- | --- | --- | --- | --- | --- | --- | --- | --- | --- | --- | --- | --- | --- | --- | --- |
| 2930 nM | 709 nM | < 31.6 nM | < 31.6 nM | < 31.6 nM | C#Cc1c(F)ccc2cc(O)cc(-c3ncc4c(N5CC6CCC(C5)N6)nc(OCC56CCCN5CC(F)C6)nc4c3F)c12 (stereo not given) + CCN1C(C(=O)NC23CCC(C(=O)O)(CC2)CC3)C(c2cccc(Cl)c2F)C2(C(=O)Nc3cc(Cl)ccc32)C12CCCCC2 | 87.3% | 94.4% | 83.2% | 61.2% | 77.4% | 74.7% | 61.6% | 43% | 33.5% | 36.1% | 24.3% | 15.7% | 10.2% | 9.47% | 4.8% | viability, T/C [5]: 54%; viability, T/C [6]: 39.4%; viability, T/C [11]: 37%; viability, T/C [12]: 26.8%; viability, T/C [17]: 14.4%; viability, T/C [18]: 7.22%; viability, T/C [22]: 4.74%; viability, T/C [23]: 4.43%; viability, T/C [24]: 1.84%; viability, T/C [25]: 2.16%; viability, T/C [26]: 1.97%; viability, T/C [27]: 2.08%; viability, T/C [28]: 1.55%; viability, T/C [29]: 1.14%; viability, T/C [30]: 0.73% |
| 552 nM | < 31.6 nM | < 31.6 nM | < 31.6 nM | < 31.6 nM | C=C(F)C(=O)N1CCN(c2nc(OCC3CCCN3C)nc3c2CCN(c2cccc4cccc(Cl)c24)C3)CC1CC#N (stereo not given) + CCN1C(C(=O)NC23CCC(C(=O)O)(CC2)CC3)C(c2cccc(Cl)c2F)C2(C(=O)Nc3cc(Cl)ccc32)C12CCCCC2 | 56.4% | 55.3% | 59.8% | 42.5% | 49.1% | 38.6% | 38.5% | 25.4% | 23.3% | 18.5% | 12.5% | 10.9% | 6.62% | 5.04% | 5.41% | viability, T/C [5]: 6.79%; viability, T/C [6]: 0.13%; viability, T/C [11]: 0.52%; viability, T/C [12]: 0.11%; viability, T/C [17]: 0.07%; viability, T/C [18]: 0.11%; viability, T/C [22]: 1.84%; viability, T/C [23]: 0.03%; viability, T/C [24]: 0.12%; viability, T/C [25]: 1.83%; viability, T/C [26]: 2.77%; viability, T/C [27]: 1.2%; viability, T/C [28]: 0.65%; viability, T/C [29]: 0.14%; viability, T/C [30]: 1.2% |
| > 10000 nM | < 31.6 nM | < 31.6 nM | < 31.6 nM | < 31.6 nM | C=CC(=O)N1CCN(c2nc(=O)n(-c3c(C)ccnc3C(C)C)c3nc(-c4c(O)cccc4F)c(F)cc23)C(C)C1 (stereo not given) + CCN1C(C(=O)NC23CCC(C(=O)O)(CC2)CC3)C(c2cccc(Cl)c2F)C2(C(=O)Nc3cc(Cl)ccc32)C12CCCCC2 | 80.2% | 66.8% | 61.3% | 61% | 48.1% | 43.3% | 39.1% | 40.8% | 25.8% | 22.3% | 21.1% | 13.9% | 6.85% | 10.2% | 5.74% | viability, T/C [5]: 60.4%; viability, T/C [6]: 47.7%; viability, T/C [11]: 31%; viability, T/C [12]: 23.5%; viability, T/C [17]: 15.8%; viability, T/C [18]: 10.9%; viability, T/C [22]: 6.83%; viability, T/C [23]: 5.12%; viability, T/C [24]: 4.58%; viability, T/C [25]: 2.47%; viability, T/C [26]: 2.14%; viability, T/C [27]: 2.66%; viability, T/C [28]: 2.75%; viability, T/C [29]: 3.23%; viability, T/C [30]: 2.77% |
| > 1000 nM | > 1000 nM | < 3.16 nM | < 3.16 nM | < 3.16 nM | CNC(C)C(=O)NC1CN(S(=O)(=O)c2cccc(S(=O)(=O)N3CCC4CCC(C(=O)NC(c5ccccc5)c5ccccc5)N4C(=O)C(NC(=O)C(C)NC)C3)c2)CCC2CCC(C(=O)NC(c3ccccc3)c3ccccc3)N2C1=O (stereo not given) + CCN1C(C(=O)NC23CCC(C(=O)O)(CC2)CC3)C(c2cccc(Cl)c2F)C2(C(=O)Nc3cc(Cl)ccc32)C12CCCCC2 | 85.6% | 91.7% | 89.2% | 73.3% | 63.5% | 65.8% | 65.4% | 60.4% | 35.1% | 24.6% | 35.6% | 30.3% | 5.92% | 4.78% | 6.7% | viability, T/C [31]: 92.8%; viability, T/C [32]: 84.1%; viability, T/C [33]: 86.3%; viability, T/C [34]: 70.2%; viability, T/C [35]: 41.7%; viability, T/C [36]: 36.5%; viability, T/C [37]: 13.8%; viability, T/C [38]: 9.3%; viability, T/C [22]: 8.64%; viability, T/C [39]: 3.86%; viability, T/C [40]: 2.08%; viability, T/C [25]: 2.54%; viability, T/C [26]: 1.28%; viability, T/C [27]: 2.31%; viability, T/C [28]: 1.12% |
| 81.8 nM | 33.5 nM | < 3.16 nM | < 3.16 nM | < 3.16 nM | COc1c(OCCCN2CCOCC2)ccc2c3n(c(=NC(=O)c4cnc(N)nc4)nc12)CCN3 + CCN1C(C(=O)NC23CCC(C(=O)O)(CC2)CC3)C(c2cccc(Cl)c2F)C2(C(=O)Nc3cc(Cl)ccc32)C12CCCCC2 | 76.5% | 41.8% | 21.1% | 5.21% | 50.4% | 25.6% | 12.3% | 2.62% | 24.4% | 10.8% | 6.23% | 0.74% | 5.86% | 2.63% | 1.42% | viability, T/C [31]: 84.5%; viability, T/C [32]: 90.5%; viability, T/C [33]: 80.3%; viability, T/C [34]: 73.3%; viability, T/C [35]: 40.1%; viability, T/C [36]: 33.8%; viability, T/C [37]: 12.2%; viability, T/C [38]: 9.4%; viability, T/C [22]: 0.49%; viability, T/C [39]: 4.48%; viability, T/C [40]: 3.3%; viability, T/C [25]: 2.05%; viability, T/C [26]: 1.31%; viability, T/C [27]: 0.47%; viability, T/C [28]: 0.37% |
